Results as given in patent publication US6967261B1, “Bandage, methods of producing and using same” (Kimberly-Clark Worldwide, priority 2001, dated 2005).

Assays:
[1] = test system: full thickness (excisional) wounds; experiment: Accelerated wound healing study, full thickness acute wound model; format: in vivo, albino rats; details: rats, topical on wound, over 15 days; versus gauze and Comfeel
Method: In the examples of the study, a series of comparative control bandage substrates were evaluated as to the speed at which wounds covered/dressed with such bandages healed. In particular, the rates of re-epithelialization were measured for wounds dressed by such control dressing materials.
Wounds were treated with test and control articles on the day of wounding (day 0) on 2,4,6,8,10, 12, and 14 days after the injury. CNA (freeze dried) was cut to the approximate size of the wound and applied over the wound. Chitosan (powder) and NA (powder) were applied over the wound to the depth that covered the underlying tissue. The gauze was cut to extend approximately 0.5 cm beyond the margins of the wound. […]
For the study, twenty four albino rats (12M/12F), each weighing between 250-300 g, were anesthetized (90 mg/Kg Ketamine HCL and 10 mg/Kg Xylazine) and the entire dorsal region of each rat was shaved. […] The epithelial thickness of the three sections of the wound (margin, center and midpoint between these two) was measured by morphometric analysis of the microscopic image using Image-Pro Plus software, Version 3.0 (Media Cybernetics). The average thickness of these sites within the wound was determined for wound healing of the entire site.

[2] = test system: human blood; experiment: Lee and White coagulation assay in human blood; details: dried form, 5 mg/ml, triplicate
Method: Several hemostatic agents were compared to determine relative effectiveness when reviewed with untreated human blood. Such comparison is illustrated in the following Table 23.
Each of the compounds were evaluated in the comparison against the standard control (human blood) and the negative control heparin, which is an anti-coagulant.
Lee and White Coagulation Assay in Human Blood

| Compound | wound healing capability (rate of epithelialization, epithelial thickness) [1] | BLOOD CLOTTING TIME [2] |
| --- | --- | --- |
| NC(=O)c1cccnc1.O=C1O[C@H]([C@@H](O)CO)C(O)=C1O [NA, Niacinamide ascorbate] | dramatically increased the wound healing capability |  |
| Heparin |  | NC (NC = No Clot for 60 min) |
